In patent publication US8927599B2, “Use of statins as anticonvulsants, antiepileptics and neuroprotectors” (Neuron Biopharma, S.A., priority 2008, dated 2015):
Read-outs that look alike come from different tables or passages of the source.

Key:
[1] = test system: male mice of the FVB/N strain inoculated with kainate (KA); test: Kainate-induced convulsions and status epilepticus, lovastatin (Example 10); format: in vivo; settings: KA 25 mg/kg i.p., 50 mg/kg i.p. at 24 and 0.5 h before KA
Method: (§1) All the animals included during the experimental process were 12 week old male mice of the FVB/N strain [Taconic Farms, Inc. (www.taconic.com)]. The experiments were carried out strictly following the Guidance on the Operation of Animals (Scientific Procedures, Act. 1986). The animals had their respective quarantine period and were treated with maximum precaution to minimize possible contaminations during inoculations and handling.
The mice, distributed into different groups, were intraperitoneally inoculated with 25 mg/kg of KA dissolved in PBS, according to the following protocol: • five mice were pretreated, at 24 and 0.5 hours before the inoculation with KA, with PBS by means of intraperitoneal (i.p.) injection; and • five animals were pretreated, at 24 and 0.5 hours before the inoculation with KA, with lovastatin at a dose of 50 mg/kg by means of i.p. injection
After the inoculation with KA, the animals were individually housed in cages to monitor them. The maximum epilepsy level of the animals was recorded every 10 minutes during the observation according to the Racine scale and for at least 120 minutes post-inoculation (m.p.i.). Comparative studies of the epilepsy levels between the treatment with PBS and with lovastatin (FIG. 12) were subsequently conducted. […]

[2] = test system: male mice of the FVB/N strain inoculated with kainate (KA); test: Kainate-induced convulsions, epilepsy level on the Racine scale and latency (Example 1); format: in vivo; settings: for time of the onset of the first convulsion (latency): KA 30 mg/kg i.p., FIG. 1
Method: as §1, with “16” for “12”
The animals, distributed into different groups, were intraperitoneally inoculated with 30 mg/kg of kainate (KA) dissolved in phosphate buffer saline (PBS), according to the following protocol: • seven animals were pretreated, at 24 and 0.5 hours before the inoculation with KA, with PBS by means of intraperitoneal (i.p.) injection; • six animals were pretreated, at 24 and 0.5 hours before the inoculation with KA, with simvastatin at a dose of 50 mg/kg by means of i.p. injection; and • four animals were pretreated, at 24 and 0.5 hours before the inoculation with KA, with DNQX (a specific inhibitor of KA receptors) at a dose of 30 mg/kg, by means of i.p. injection.
(§2) After the inoculation with KA, the animals were individually housed in cages to monitor them. The maximum epilepsy level of the animals was recorded every 10 minutes during the observation according to the Racine scale and for at least 120 minutes post-inoculation (m.p.i.).

[3] = test system: male mice of the FVB/N strain inoculated with kainate (KA); test: Effect of the route of administration, kainate model (Example 3); format: in vivo; settings: FIG. 5
Method: As shown in Examples 1 and 2, simvastatin has antiepileptic properties and such properties depend on the dose at which said compound is administered. Due to these observations, the inventors decided to investigate if the antiepileptic effect of simvastatin would also be modulated by the route of administration. All the animals included during the experimental process were 16 week old male mice of the FVB/N strain. The experiments were carried out strictly following the Guidance on the Operation of Animals (Scientific Procedures, Act. 1986). The animals had their respective quarantine period and were treated with maximum precaution to minimize possible contaminations during inoculations and handling.
The animals, distributed into different groups, were intraperitoneally inoculated with 25 mg/kg of KA dissolved in PBS, according to the following protocol: • three animals were pretreated, at 24 and 0.5 hours before the inoculation with KA, with simvastatin at a dose of 50 mg/kg by means of direct oral administration; and • two animals were pretreated, at 24 and 0.5 hours before the inoculation with KA, with simvastatin at a dose of 50 mg/kg by means of i.p. injection
as §2

patient = settings: cited from earlier work

Structure (SMILES): CC[C@H](C)C(=O)O[C@H]1C[C@@H](C)C=C2C=C[C@H](C)[C@H](CC[C@@H]3C[C@@H](O)CC(=O)O3)[C@H]21 [lovastatin]
- entrance into status epilepticus ([1]; PBS 3 of 5): 0 of 5
- epilepsy symptoms (Racine scale) at the end of the observation time ([1]; PBS+KA about 3, p-value=0.00059, FIG. 12): completely reduced the epilepsy symptoms

Structure (SMILES): CCC(C)(C)C(=O)O[C@H]1C[C@@H](C)C=C2C=C[C@H](C)[C@H](CC[C@@H]3C[C@@H](O)CC(=O)O3)[C@H]21 [simvastatin]
- time of the onset of the first convulsion (latency) ([2]; pretreated 50 mg/kg i.p. at 24 and 0.5 h before KA): 50.0 ± 11.8 min
- mean epilepsy level (Racine scale) ([2]; after 30 m.p.i. of KA 30 mg/kg, 50 mg/kg i.p. pretreatment, FIG. 2): ≤ 4
- epileptic level (Racine scale) ([3]; 50 mg/kg direct oral administration, reached at 100 m.p.i. and maintained until 120 m.p.i., KA 25 mg/kg): 2
- epileptic level (Racine scale) ([3]; 50 mg/kg i.p., 70 m.p.i. of KA 25 mg/kg): 2
- epileptic level (Racine scale) ([3]; 50 mg/kg i.p., 120 m.p.i. of KA 25 mg/kg): 1

Structure (SMILES): CC(C)n1c(/C=C/C(O)CC(O)CC(=O)O)c(-c2ccc(F)cc2)c2ccccc21 (centres unmarked) [fluvastatin]
- adverse event after administration to a patient (patient; patient with catastrophic antiphospholipid syndrome, Miesbach et al., J Neurol Sci. 2005): focal convulsions

Structure (SMILES): CC(C)c1nc(N(C)S(C)(=O)=O)nc(-c2ccc(F)cc2)c1/C=C/[C@@H](O)C[C@@H](O)CC(=O)O [rosuvastatin]
- adverse event after administration to a patient (patient; Lorenzoni et al., Arq Neuropsiquiatr. 2007): severe rhabdomyolysis with convulsions and coma

Structure (SMILES): O=[N+]([O-])c1cc2nc(O)c(O)nc2cc1[N+](=O)[O-] [DNQX]
- time of the onset of the first convulsion (latency) ([2]; pretreated 30 mg/kg i.p. at 24 and 0.5 h before KA): 23.3 ± 7.6 min
- epilepsy level (Racine scale) versus PBS ([2]; after 30 m.p.i. of KA 30 mg/kg, 30 mg/kg i.p. pretreatment, FIG. 3): prevents the increase of the epileptic levels
